Reference: patent publication US9132108B2, “Pharmaceutical composition for ameliorating and/or preventing leptin resistance, and use thereof” (HIROSHIMA UNIVERSITY, priority 2009, dated 2015)

Columns and labels:
[1] = marketed non-steroidal anti-inflammatory agent; cited from earlier work
blood glucose level [2] = experiment: Glucose tolerance test after 8 weeks of diet (Example 4); type: in vivo, mouse; conditions: 10 mg/kg per day orally
Source text: In view of the above, Example 4 discussed whether it is possible to evaluate induction of leptin resistance by measuring a change in blood glucose level by the glucose tolerance test as a reference index. At the same time, Example 4 discussed whether administration of flurbiprofen can prevent induction of leptin resistance, by measuring a change in blood glucose level by the glucose tolerance test as a reference index. Specifically, 4 weeks-old mice (C57BL/6 Cr Slc) were divided into four groups each consisting of 14-16 mice. Mice of individual groups were given diets as follows for 8 weeks similarly with Example 3. • Group 1: Normal diet (10 kcal % fat) only • Group 2: High-fat diet (60 kcal % fat) only • Group 3: Normal diet+flurbiprofen • Group 4: High-fat diet+flurbiprofen Flurbiprofen (F8514, produced by SIGMA) was diluted with drinking water so that the administration amount of flurbiprofen would be 10 mg/kg per day, and was orally administered to the mice in the form of drinking water. […] In Example 4, mice were fasted overnight for 17 hours, and fasted blood glucose level (pre) was measured by Freestyle freedom (NIPRO CORPORATION, blood glucose self-monitoring system) at 10:00 a.m. […] Blood glucose level was measured by Freestyle freedom (NIPRO CORPORATION, blood glucose self-monitoring system) 30 minutes, 1 hour, and 2 hours after the administration. […]

[3] = system: mice given high-fat diet for 6 months (leptin resistance); experiment: Body weight of leptin-resistant mice (6 months high-fat diet), therapeutic effect (Example 8); type: in vivo, mouse; conditions: 3 mg/kg per day orally
Source text: In Example 8, effectiveness of flurbiprofen in ameliorating leptin resistance was confirmed by measuring a change in body weight of mice as a reference index. Specifically, 4 weeks-old male mice (C57BL/6 Cr Slc) had been given high-fat diet for 6 months so that leptin resistance would be induced in the mice. Thereafter, the mice were divided into two groups (each consisting of 14 mice), and the mice of individual groups were given the following diets for 3 weeks. • Control group (Cont): normal diet (10 kcal % fat) only • Flurbiprofen-administered group (Ful): normal diet+flurbiprofen Flurbiprofen (F8514, produced by SIGMA) was diluted with drinking water so that the administration amount of flurbiprofen would be 3 mg/kg per day, and was orally administered to the mice in the form of drinking water. The rates of change in body weight of the mice of individual groups were measured with the date when administration of flurbiprofen started (0 week) as a reference. Further, the amount of visceral fat (g) was measured. The visceral fat was extracted from abdomens of the mice and wet weight thereof was measured. FIGS. 13 and 14 show the result. FIG. 13 is a graph showing the rates of change in body weight of the mice of the control group and the mice of the flurbiprofen-administered group. […]

blood glucose level [4] = experiment: Glucose tolerance test in leptin-resistant mice (Example 11); type: in vivo, mouse; conditions: 3 hours after glucose 2 g/kg i.p.; 3 mg/kg per day orally, 3 weeks; vs control group; P<0.07 in t-test
Procedure: Similarly with Example 8, 4 weeks-old male mice (C57BL/6 Cr Slc) had been given high-fat diet for 6 months so that leptin resistance would be induced in the mice. Thereafter, the mice were divided into two groups (each consisting of 8 mice), and the mice of individual groups were given the following diets for 3 weeks. • Control group: normal diet (10 kcal % fat) only • Flurbiprofen-administered group: normal diet+flurbiprofen Flurbiprofen (F8514, produced by SIGMA) was diluted with drinking water so that the administration amount of flurbiprofen would be 3 mg/kg per day, and was orally administered to the mice in the form of drinking water. The mice to which flurbiprofen had been administered for 3 weeks were subjected to a glucose tolerance test. In Example 11, mice were fasted overnight for 17 hours from between 17:00 and 18:00 of the previous day, and fasted blood glucose level (pre) was measured by Freestyle freedom (NIPRO CORPORATION, blood glucose self-monitoring system) at 10:00 to 11:00. Thereafter, glucose was intraperitoneally (i.p.) administered so that the administration amount of glucose would be 2 g/kg. Blood glucose level was measured using Freestyle freedom (NIPRO CORPORATION, blood glucose self-monitoring system) 30 minutes, 1 hour, 2 hours, 3 hours, and 4 hours after glucose administration. FIG. 17 is a graph showing the result of the glucose tolerance test. […]

mice = experiment: Amount of mice water intake (Example 12); type: in vivo, mouse; conditions: 10 mg/kg per day orally in drinking water; normal or high-fat diet
Procedure: In order to measure the amount of mice water intake, 4 weeks-old male mice (C57BL/6 Cr Slc) were divided into four groups (each consisting of 7-8 mice), were isolated from one another so that there would be one mouse per cage. The mice were then habituated for 2 days. The amount of mice water intake was measured every 24 hours for 4 days from the forenoon on the second day of the habituation, and the amount of mice water intake for 4 days was summed up. • Group 1: Normal diet (10 kcal % fat) only • Group 2: High-fat diet (60 kcal % fat) only • Group 3: Normal diet+flurbiprofen • Group 4: High-fat diet+flurbiprofen Flurbiprofen (F8514, produced by SIGMA) was diluted with drinking water so that the administration amount of flurbiprofen would be 10 mg/kg per day, and was orally administered to the mice in the form of drinking water. FIG. 18 is a graph showing the result of the measurement of the amount of mice water intake. Values in the graph of FIG. 18 are averages of the total amounts (g) of water intake of mice of each group for 4 days (± their standard deviations) (n=7-8 with respect to each group). Further, statistic analysis was carried out using t-test.

Q: Which “dependence and development of resistance” value [1] does the source give for `C[C@@H](C(=O)O)c1ccc(-c2ccccc2)c(F)c1` [flurbiprofen] here?
A: no dependence on flurbiprofen or no development of resistance to flurbiprofen is observed

Q: And the “blood glucose level in glucose tolerance test” value (shortened to “blood glucose level”) (blood glucose level [2]; Group 3 (normal diet+flurbiprofen) vs Group 1 (normal diet))?
A: no significant difference in blood glucose level

Q: And the “blood glucose level” value (blood glucose level [2]; Group 4 (high-fat diet+flurbiprofen), 1 hour after glucose 2 g/kg i.p., significant difference vs Group 2)?
A: rapidly decreased blood glucose level

Q: And the “time after administration at which the effect of ameliorating leptin resistance is observed” value ([3]; rate of change in body weight vs control group)?
A: 1 week

Q: What about the average body weight ([3]; 3 weeks after the administration of flurbiprofen, normal diet after 6 months high-fat diet, before administration 53.479±0.7804 g, control 48.371±0.6387 g, P<0.05) of the same compound?
A: 45.543 ± 1.1103 g

Q: What about the “blood glucose level” value (blood glucose level [4]) of the same compound?
A: reduced blood glucose level

Q: What about the “total amount of water intake for 4 days” value (mice) of the same compound?
A: constant regardless of whether flurbiprofen was administered or not
